Patent US9815788B2, “Anti-angiogenic compounds” (University College Dublin National University of Ireland, …, priority 2012, dated 2017)

Columns and labels:
[1] = molecular target: T1, cysteinyl-leukotriene CysLT1 (Cavia porcellus, UniProt Q2NNR5); assay: Ex vivo cysteinyl leukotriene guinea pig lung strip assay; conditions: 30 μM, 3 nM leukotriene D4
T1 construct: a lung strip obtained from Duncan Hartley derived male or female guinea pigs; from tissue; host or cells: guinea pig lung strip
T1 sequence (Q2NNR5 1-340): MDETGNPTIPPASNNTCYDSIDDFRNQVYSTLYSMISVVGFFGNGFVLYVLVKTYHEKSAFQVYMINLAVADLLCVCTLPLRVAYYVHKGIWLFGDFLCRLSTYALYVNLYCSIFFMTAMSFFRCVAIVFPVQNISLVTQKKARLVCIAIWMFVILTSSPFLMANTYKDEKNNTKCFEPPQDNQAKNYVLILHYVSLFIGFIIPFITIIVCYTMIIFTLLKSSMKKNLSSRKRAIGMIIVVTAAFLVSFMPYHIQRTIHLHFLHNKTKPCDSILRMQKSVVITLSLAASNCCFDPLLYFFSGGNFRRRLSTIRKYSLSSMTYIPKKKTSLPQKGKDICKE
Procedure: (§1) FIG. 15 tables the percentage inhibition by compounds 11B_CC11_HCl and 11B_CC16_HCl on the cysteinyl leukotriene pathway in in vitro and ex vivo assays. […] For in vitro cysteinyl leukotriene cell-based assays 11B_CC11_HCl and 11B_CC16_HCl, were tested at 30 μM concentration in duplicate, in a single experiment for their ability to inhibit the calcium mobilisation response of the CysLT1 receptor to 0.1 nM leukotriene D4 in CHO cells over-expressing the CysLT1 receptor or the calcium mobilisation response of the CysLT2 receptor to 30 nM of leukotriene C4 in HEK 293 cells over expressing the CysLT2 receptor.
(§2) Target profiling using Cerep and Eurofins/Panlabs profiling screens was undertaken using 11B_CC11_HCl and 11B_CC16_HCl in order to investigate the mechanism of action. […] Test substance (30 LM)-induced isometrically recorded contraction by 50 percent or more within 5 min, relative to control 3 nM leukotriene D4 response, indicates possible cysteinyl-leukotriene LT1 receptor agonist activity. […] To measure inhibition of cysteinyl leukotriene 1 (CysLT1 [LTD4]) and cysteinyl leukotriene 2 (CysLT2 [LTC4]) receptor activity, calcium mobilisation was measured using Fluor-3-loaded CHO cells (for cysLT1 assays) or HEK-293 cells (for CysLT2 assays) which stably express either the CysLT1 or CysLT2 receptors. […]

[2] = molecular target: T2, CysLT2 receptor (Homo sapiens, UniProt Q9NS75); assay: CysLT2 calcium mobilisation assay in HEK 293 cells; format: cell-based; conditions: HEK293, 30 nM LTC4, HEK-293 cells expressing CysLT2, read-out: inhibition of calcium mobilisation (CysLT2 antagonism)
T2 construct: host or cells: HEK 293 cells
T2 sequence (Q9NS75 1-346): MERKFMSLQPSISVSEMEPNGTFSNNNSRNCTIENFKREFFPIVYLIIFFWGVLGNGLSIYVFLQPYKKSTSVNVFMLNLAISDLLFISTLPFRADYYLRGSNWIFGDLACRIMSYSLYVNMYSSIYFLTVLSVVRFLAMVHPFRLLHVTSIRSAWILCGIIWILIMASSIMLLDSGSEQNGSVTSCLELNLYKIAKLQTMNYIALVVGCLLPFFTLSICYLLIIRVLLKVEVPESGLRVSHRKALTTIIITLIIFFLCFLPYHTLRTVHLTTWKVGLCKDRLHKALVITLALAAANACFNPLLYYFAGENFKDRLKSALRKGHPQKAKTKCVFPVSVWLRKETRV
Procedure: as §1, §2

[3] = molecular target: T3, CysLT1 receptor (Homo sapiens, UniProt Q9Y271); assay: CysLT1 calcium mobilisation assay in CHO cells; format: cell-based; conditions: 0.1 nM LTD4, CHO cells expressing CysLT1, read-out: inhibition of calcium mobilisation (CysLT1 antagonism)
T3 construct: host or cells: CHO cells
T3 sequence (Q9Y271 1-337): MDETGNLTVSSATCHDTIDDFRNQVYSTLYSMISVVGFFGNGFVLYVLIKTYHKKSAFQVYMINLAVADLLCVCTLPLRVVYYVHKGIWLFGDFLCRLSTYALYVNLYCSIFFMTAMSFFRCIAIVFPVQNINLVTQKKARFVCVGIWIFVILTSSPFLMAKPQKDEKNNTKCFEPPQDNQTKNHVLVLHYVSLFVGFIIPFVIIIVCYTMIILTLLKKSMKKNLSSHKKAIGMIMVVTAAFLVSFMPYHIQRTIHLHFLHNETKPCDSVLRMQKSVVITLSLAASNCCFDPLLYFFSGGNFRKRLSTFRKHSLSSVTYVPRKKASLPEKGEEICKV
Procedure: as §1, §2

[4] = system: zebrafish hyaloid vasculature; assay: Quantification of primary hyaloid vasculature branch number in Tg(fli1:EGFP) zebrafish; format: in vivo
Procedure: (§3) All experiments were carried out under ethical approval granted by the UCD animal research ethics committee. Tg(fli1:EGFP) zebrafish were maintained according to standard procedures on a 14 hr light/10 hr dark cycle at 28° C. Embryos were obtained by natural spawning and developmental stages established by time and morphological criteria. […] Larvae were euthanised, and fixed in 4% PFA at 4° C. overnight before analysis.
Overall patterning of the vasculature (fin, gut and intersegmental vessels) was examined for abnormalities. Right lenses were dissected from the larvae and transferred to depression slides for observation under epi-fluorescence in the Olympus SZX16. Patterning of the hyaloid vessels on the treated larval lenses was compared to DMSO controls and the archetypal pattern previously described (Alvarez et al., 2007; Alvarez et al., 2009).
as §3, with “analysis. Lenses were dissected from the larvae and transferred to depression slides for observation under epi-fluorescence in the Olympus SZX16. Patterning of the hyaloid vessels on the treated larval lenses was compared to DMSO controls and the archetypal pattern previously described (Alvarez et al., 2007; Alvarez et al., 2009).” for “analysis.”

[5] = system: OE33R radio-resistant oesophageal adenocarcinoma cells; assay: Quantification of glycolysis (ECAR, Seahorse), OE33R; format: cell-based, human; conditions: 10 μM, 24 hours
Procedure: OE33P radio-sensitive and OE33R radio-resistant oesophageal adenocarcinoma cells were used to test the effects of compounds 11B HCl, 11B CC11 HCl, 11B CC16 HCl, 11B 471 and 11B 268 on glycolysis. Cells were maintained in RPMI media supplemented with 10% foetal calf serum, penicillin (100 U/ml) and streptomycin (100 μg/ml). A total of 11,000 or 13,000 cells, in 100 μl media, were seeded per well in 24 well plates and left to incubate for 24 hours, with an additional 150 μl media added after 5 hours. The media was replaced with solutions containing 10 μM of 11B HCl, […], 11B CC16 HCl, 11B 471, 11B 268 or fresh media as a control. Each drug had 6 replicates. After 24 hours of treatment, media was replaced with modified DMEM supplemented with 0.5 mM glucose. Rates of glycolysis were determined using Seahorse Biosciences metabolism technology. The media was disposed and the cells washed with PBS. The cells were fixed with 1% glutaraldehyde for 15 minutes and then stained with crystal violet for 30 minutes. The plates were blotted and dried overnight. The cells were resuspended with 1% TritonX-100 and shaken for 15 minutes. The absorbance was read on a spectrophotometer at 590 nm. Rates of glycolysis were then normalised to cell number.
OE33P radiosensitive oesophageal adenocarcinoma cells were used to test the effects of the compound 11B_ZHCl on glycolysis. Cells were maintained in RPMI media supplemented with 10% foetal calf serum, penicillin (100 U/ml) and streptomycin (100 μg/ml). A total of 11,000 cells, in 100 μl media, were seeded per well in 24 well plates and left to incubate for 24 hours, with an additional 150 μl media added after 5 hours. The media was replaced with solutions containing 10 μM of 11B_ZHCl or fresh media as a control. Each treatment had 6 replicates. After 24 hours of treatment, media was replaced with modified DMEM supplemented with 0.5 mM glucose. Rates of glycolysis were determined using Seahorse Biosciences metabolism technology. […] The absorbance was read on a spectrophotometer at 590 nm. […] No changes in ECAR were detected in OE33R treated cells.

[6] = system: OE33P radio-sensitive oesophageal adenocarcinoma cells; assay: Cell number after 24 hours drug treatment (crystal violet absorbance), OE33P; format: cell-based, human; conditions: 10 μM
Procedure: (§4) OE33P radio-sensitive and OE33R radio-resistant oesophageal adenocarcinoma cells were used to test the effects of the compounds 11B HCl, […], 11B CC16 HCl, 11B 471 and 11B 268 on cell number. Cells were maintained in RPMI media supplemented with 10% foetal calf serum, penicillin (100 U/ml) and streptomycin (100 gig/ml). A total of 11.000 or 13,000 cells, in 100 μl media, were seeded per well in 24 well plates and left to incubate for 24 hours, with an additional 150 μl media added after 5 hours. The media was replaced with solutions containing 10 μM of 11B HCl, 11B CC11 HCl, 11B CC16 HCl, 11B 471, 11B 268 or fresh media as a control. Each drug had 6 replicates. After 24 hours of treatment, the cells were fixed with 1% glutaraldehyde for 15 minutes and then stained with crystal violet for 30 minutes. The plates were blotted and dried overnight. The cells were resuspended with 1% TritonX-100 and shaken for 15 minutes. The absorbance was read on a spectrophotometer at 590 nm.
(§5) OE33P radiosensitive and OE33R radioresistant cells were used to test the effects of the compound 11B_Z_HCl on toxicity. Cells were maintained in RPMI media supplemented with 10% foetal calf serum, penicillin (100 U/ml) and streptomycin (100 μg/ml). A total of 11,000 cells, in 100 μl media, were seeded per well in 24 well plates and left to incubate for 24 hours, with an additional 150 μl media added after 5 hours. The media was replaced with solutions containing 10 μM of 11B_Z_HCl or fresh media as a control. Each treatment had 6 replicates. After 24 hours of treatment, the cells were fixed with 1% glutaraldehyde for 15 minutes and then stained with crystal violet for 30 minutes. The plates were blotted and dried overnight. The cells were resuspended with 1% TritonX-100 and shaken for 15 minutes. The absorbance was read on a spectrophotometer at 590 nm.

[7] = system: zebrafish intersegmental vessels; assay: Quantification of intersegmental vessel number in zebrafish; format: in vivo; conditions: 10 μM, from 6 hpf
Procedure: […] Larvae were manually dechorionated, euthanised, and fixed in 4% PFA at 4° C. overnight before analysis. The larvae were then washed with PBS and transferred to depression slides for observation under epi-fluorescence in an Olympus SZX16 fluorescent microscope. The number of intersegmental vessels was counted and the average number was graphed for each drug.
Larvae were manually dechorionated, euthanised, and fixed in 4% PFA at 4° C. overnight before analysis. The larvae were then washed with PBS and transferred to depression slides for observation under epi-fluorescence in an Olympus SZX16 fluorescent microscope. The number of intersegmental vessels was counted and the average number was graphed for each drug.

[8] = system: OE33R radio-resistant oesophageal adenocarcinoma cells; assay: Cell number after 24 hours drug treatment (crystal violet absorbance), OE33R; format: cell-based, human; conditions: 10 μM
Procedure: as §4, §5

| reduction of the leukotriene D4-induced contractile response [1] [%] | inhibition at 30 µM [2] [%] | inhibition at 30 µM [3] [%] | SMILES | dose-dependent inhibition of development of hyaloid vessels ([4]; decreasing doses 20, 10, 7.5, 5, 2.5, 1 and/or 0.5 μM) | inhibition of developmental angiogenesis of the hyaloid vasculature (number of primary hyaloid vessels) ([4]; typically 10 μM or 5 μM, from 24 hpf, vs DMSO control) | extracellular acidification rate (ECAR), a measure of glycolysis [5] | cell number, measured by % absorbance [6] | inhibition of developmental angiogenesis of intersegmental vessels (number of intersegmental vessels) [7] | cell number, measured by % absorbance [8] |
| --- | --- | --- | --- | --- | --- | --- | --- | --- | --- |
| 100 | 48 | 137 | Cl.Oc1ccccc1C#Cc1ccc2ccccc2n1 [Compound 11B_CC16_HCl, 2-Quinolin-2-yl-ylethynyl-phenol HCl salt] |  |  |  |  |  |  |
|  |  |  | C(=Cc1ccc2ccccc2n1)c1cccnc1 [Compound 11B-471, 2-[2-(3-pyridinyl)vinyl]quinoline] | inhibit developmental angiogenesis of zebrafish hyaloid vasculature in a dose-dependent statistically significant manner | inhibit developmental angiogenesis of the zebrafish hyaloid vasculature in a statistically significant manner | significantly reduce | did not significantly reduce cell number | inhibit developmental angiogenesis of zebrafish intersegmental vessels in a statistically significant manner | did not significantly reduce cell number |
